In patent US12329722B2, “Finished pharmaceutical form with individual medicine dosing capability (embodiments) and methods of its production and use” (PSIMOS, INC., priority 2016, dated 2025):

Experiments:
Format in all cases: physicochemical
[1] = solubility in water/alcohol solutions; details: water/alcohol solutions of the abovementioned concentrations
[2] = desorption of applied medicine from porous media to potable water; details: 50 ml of potable water
[3] = quantity of medicine that can be applied on unit area of porous media with a jet printer; details: fiberglass membrane made by Algstrem
Method: Using a jet printer with rechargeable cartridges the solution was applied on a 236.5 cm^2 specimen of media made from cellulose filtering material (size 21.5*1 1 cm^2, format Letter) with different printing qualities in dpi and different area filling densities. […] Following that the quantity of acetylsalicylic acid applied per unit area was analyzed depending on software controlled printing quality (in dpi). Using the specially plotted graduation curve the required printing densities in dpi were selected for applying 130 mg per 0.25 cm^2, or 520 mg/cm^2. The specimen was dried in a hot air flow for guaranteed removal of the water/alcohol solvent and packaged in a polymer container protecting the specimen from direct sunlight. Then the specimen was removed from the container and placed in a glass with water.
A similar procedure was conducted for d, 1-2-(4-isobutylphenyl)-propionic acid (the active pharmaceutical substance of the Ibuprofen medicine) and a fiberglass membrane made by Algstrem, USA, used in immunology.

[4] = stability of medicine during application with a piezoelectric apparatus (chromatography); details: heat from piezoelectric apparatus above 40 degrees Celsius
From the text: Initially, at S110, a head 216 of a printing device 208 is dismantled. The head 216 of the printing device 208 may include a plurality of head nozzles 218 operative to dispense a liquid therefrom. The printing device 208 may be a piezoelectric apparatus, or any other suitable apparatus. The printing device 208 may accurately (e.g., within 5% of a nominal range) output a range of drop sizes (e.g., 2-80 picolitres) at a relatively high dispensing frequency (e.g., 1000-3000 drops per second). The printing device 208 may operate based on an inverse piezoelectric effect, whereby a piezoelectric element is deformed under the influence of an electric field. […] In one or more embodiments, the printing device 208 may include a thermo sensor 230 to control the temperature of the head 216 to avoid heating the medicine to a temperature that results in decomposition of the medicine. […] It is noted that the ranges of acceptable temperatures may be analyzed, as cooling may affect viscosity of the medicine. […] The inventors note that, per their research on the use of vitamin C in a piezoelectric apparatus, during application of the medicine to the porous media, heat resulting from the use of the piezoelectric apparatus occurred above 40 degrees Celsius, as vitamin C was destroyed and its presence was not detected during chromatography. […]

In the case of `CC(=O)Oc1ccccc1C(=O)O` [acetylsalicylic acid], the “solubility in water/alcohol solutions” value [1] is reported as about 100%.

In the case of `CC(C)Cc1ccc(C(C)C(=O)O)cc1` (centres unmarked) [d, 1-2-(4-isobutylphenyl)-propionic acid], the “quantity desorbed to potable water” value ([2]; 1 cm^2 fiberglass membrane (Algstrem), 300±2 mg applied) is reported as 246±2, the “share of applied quantity desorbed to potable water” value ([2]; 1 cm^2 fiberglass membrane) is reported as 82% and the “possible quantity that can be applied on 1 cm^2 (unit area)” value [3] is reported as 300 ± 2 mg.

With `O=C1O[C@H]([C@@H](O)CO)C(O)=C1O` [vitamin C] the “stability during application to porous media with piezoelectric apparatus” value [4] was “destroyed”.
